Source: article PMC8113459, “Selective inhibition of cullin 3 neddylation through covalent targeting DCN1 protects mice from acetaminophen-induced liver toxicity” (Nature Communications, 2021)
“And” between values parts separate entries of the source, which are not always exact repeats. Equal entries are not always repeated.

Assays:
Assay type in all cases: cell-based, human
[1] = test system: neddylation of cullin 1, 2, 4A, 4B, and 5; assay: Western blot, neddylation of other cullin members
Method: (§1) Western blotting was performed as described previously. Treated cells were lysed by RIPA buffer supplemented with protease inhibitor. The expression level of indicated proteins was examined by immunoblotting analysis and GAPDH was used as the loading control. Antibodies were purchased commercially: cullin 1 (sc-17775, 1:500 dilution) and cullin 2 (sc-166506, 1:500 dilution) from Santa Cruz Biotech (Santa Cruz, CA); cullin 4A (PA5-14542, 1:1000 dilution), cullin 4B (PA5-50647, 1:1000 dilution), and DCN3 (DCUN1D3, PA5-44000, 1:1000 dilution) from Thermo Fisher Scientific (Wayne, MI); cullin 3 (2759, 1:1000), NRF2 (12721, 1:1000 dilution), HO-1 (70081, 1:1000 dilution), and Bim (2819, 1:1000 dilution) from Cell Signaling Technology (Boston, MA); DCN1 (GWB-E3D700, 1:1000 dilution) from GenWay Biotech (San Diego, CA); and cullin 5 (A302-173A, 1:500 dilution) from Bethyl Labs (Montgomery, TX). Results are representative of two independent experiments.

[2] = Cell viability assay (WST-8), U2OS; details: human, U2OS cells, replicates, read-out: cell viability relative to control
Method: (§2) Cell viability assay was performed as previously described. The effect of DCN1 inhibitors on cell growth was evaluated by a WST-8 [2-(2-methoxy-4-nitrophenyl)-3-(4-nitrophenyl)-5-(2,4-disulfophenyl)-2H-tetrazolium, monosodium salt assay (Dojindo Molecular Technologies, Inc). Cells (2000–3000 cells in each well) were seeded in 96-well tissue culture plates in medium (100 μL) and treated with serial dilution of DCN1 inhibitors for 3 days. At the end of incubation, WST-8 dye (20 μL) was added to each well and incubated for 1–3 h, then the absorbance was measured in a microplate reader (Molecular Devices) at 450 nm. Cell growth inhibition was evaluated as the ratio of the absorbance of the sample to that of the control. The values were inserted into Prism software, and the curves and the EC50 values were produced by Prism software.

[3] = test system: U2OS cells; assay: Cell viability assay (WST-8), U2OS; details: for cell viability relative to control: replicates
Method: as §2

[4] = Cell viability assay (WST-8), HCT116; details: human, HCT116 cells, replicates, read-out: cell viability relative to control
Method: as §2

[5] = test system: HCT116 cells; assay: Cell viability assay (WST-8), HCT116; details: for cell viability relative to control: replicates
Method: as §2

[6] = test system: neddylation of cullin 3; assay: Western blot, cullin 3 neddylation in U2OS cells; details: U2OS, Fig. 6c
Method: as §1

[7] = test system: four cancer cell lines; assay: Cell viability assay (WST-8), four cancer cell lines; details: concentrations up to 1000 nM, 72 h
Method: as §2

[8] = Cell viability assay (WST-8), KYSE70; details: human, KYSE70 cells, replicates, read-out: cell viability relative to control
Method: as §2

[9] = test system: KYSE70 cells; assay: Cell viability assay (WST-8), KYSE70; details: for cell viability relative to control: replicates
Method: as §2

[10] = Cell viability assay (WST-8), MDA-MB-231; details: human, MDA-MB-231 cells, replicates, read-out: cell viability relative to control
Method: as §2

[11] = test system: MDA-MB-231 cells; assay: Cell viability assay (WST-8), MDA-MB-231; details: for cell viability relative to control: replicates
Method: as §2

Q: What does the source list for NS(=O)(=O)OC[C@@H]1C[C@@H](n2ccc3c(N[C@H]4CCc5ccccc54)ncnc32)C[C@@H]1O [MLN4924]?
A: inhibition of neddylation of cullin members ([1]; THLE2, Fig. 6b): potently inhibits neddylation of all cullins; time within which the neddylation of cullin 1 is effectively inhibited ([1]; U2OS, Fig. 6c): ≤ 30 min; viability at 72 h ([2]; conc 10, 72 h): 108%; viability at 72 h ([2]; conc 30, 72 h): 97.3%; viability at 72 h ([2]; conc 100, 72 h): 50.8%; viability at 72 h ([2]; conc 1000, 72 h): 21%; EC50 ([3]; Homo sapiens, U2OS, 72 h, cell line assigned from panel order, read-out: EC50, cell growth inhibition): 209 nM; cell viability relative to control ([3]; conc 3, 72 h): 108.902 and 87.9268 and 99.0244; cell viability relative to control ([3]; conc 10, 72 h): 107.561 and 98.1707; cell viability relative to control ([3]; conc 30, 72 h): 105.122 and 104.756; cell viability relative to control ([3]; conc 100, 72 h): 49.6951 and 43.1707; cell viability relative to control ([3]; conc 300, 72 h): 47.5122 and 35 and 24.2561; cell viability relative to control ([3]; conc 1000, 72 h): 34.8293 and 26.6585; viability at 72 h ([4]; conc 3, 72 h): 103%; viability at 72 h ([4]; conc 10, 72 h): 118%; viability at 72 h ([4]; conc 30, 72 h): 106%; viability at 72 h ([4]; conc 300, 72 h): 26.5%; viability at 72 h ([4]; conc 1000, 72 h): 27.6%; EC50 ([5]; Homo sapiens, HCT-116, 72 h, cell line assigned from panel order, read-out: EC50, cell growth inhibition): 294 nM; cell viability relative to control ([5]; conc 3, 72 h): 93.0769 and 97.803; cell viability relative to control ([5]; conc 10, 72 h): 99.5045 and 108.03; cell viability relative to control ([5]; conc 30, 72 h): 98.1868 and 105.151; cell viability relative to control ([5]; conc 100, 72 h): 42.5676 and 63.1319 and 54.6212; cell viability relative to control ([5]; conc 300, 72 h): 39.0549 and 40.989; cell viability relative to control ([5]; conc 1000, 72 h): 32.8022 and 29.945; time within which the neddylation of cullin 3 is effectively inhibited [6]: ≤ 30 min; cytotoxicity / cell viability [7]: potently inhibits cell viability; viability at 72 h ([8]; conc 10, 72 h): 110%; viability at 72 h ([8]; conc 30, 72 h): 76.4%; viability at 72 h ([8]; conc 100, 72 h): 59.5%; viability at 72 h ([8]; conc 300, 72 h): 41.9%; viability at 72 h ([8]; conc 1000, 72 h): 31%; EC50 ([9]; Homo sapiens, KYSE-70, 72 h, cell line assigned from panel order, read-out: EC50, cell growth inhibition): 266 nM; cell viability relative to control ([9]; conc 3, 72 h): 119.091 and 98.7603 and 92.6446; cell viability relative to control ([9]; conc 10, 72 h): 116.984 and 100.041; cell viability relative to control ([9]; conc 30, 72 h): 82.3967; cell viability relative to control ([9]; conc 100, 72 h): 57.9752; cell viability relative to control ([9]; conc 300, 72 h): 39.3388; cell viability relative to control ([9]; conc 1000, 72 h): 29.2149; viability at 72 h ([10]; conc 3, 72 h): 106%; viability at 72 h ([10]; conc 10, 72 h): 98.2%; viability at 72 h ([10]; conc 30, 72 h): 78.8%; viability at 72 h ([10]; conc 100, 72 h): 43.4%; viability at 72 h ([10]; conc 300, 72 h): 25.5%; viability at 72 h ([10]; conc 1000, 72 h): 13.7%; EC50 ([11]; Homo sapiens, MDA-MB-231, 72 h, cell line assigned from panel order, read-out: EC50, cell growth inhibition): 154 nM; cell viability relative to control ([11]; conc 3, 72 h): 94.1379 and 99.1954; cell viability relative to control ([11]; conc 10, 72 h): 109.785 and 104.516; cell viability relative to control ([11]; conc 30, 72 h): 84.086 and 84.3011; cell viability relative to control ([11]; conc 100, 72 h): 59.6774 and 48.8172; cell viability relative to control ([11]; conc 300, 72 h): 28.4946 and 44.3011; cell viability relative to control ([11]; conc 1000, 72 h): 18.2796 and 26.5591
